Values joined by “and” are separate entries in the source; they are usually repeats but may differ in a detail not shown here. Identical values can stand only once. Counter-ions that a name gives are not always drawn.
How the values were obtained:
[1] = test system: rabbit pupil; experiment: Rabbit pupil diameter change with other pilocarpine salts (Test Example 2); format: in vivo; details: for miosis effect on rabbit pupils 3 h after administration: Table 2-1 solutions, equimolar pilocarpine; for Percentage change in pupil diameter: average value ± SD
Source text: Pilocarpine nitrate: with a molecular weight of 271.27 and a purity of 98%, from Nanjing Jiqun Pharmaceutical Technology Co., Ltd., prepared into a 1.38% solution using normal saline. Pilocarpine salicylate: with a molecular weight of 346.24 and a purity of 99.73%, from Nanjing Jiqun Pharmaceutical Technology Co., Ltd., prepared into a 1.76% solution using normal saline. Pilocarpine malate: with a molecular weight of 342.21 and a purity of 99.72%, from Nanjing Jiqun Pharmaceutical Technology Co., Ltd., prepared into a 1.74% solution using normal saline. Pilocarpine maleate: with a molecular weight of 324.19 and a purity of 99.76%, from Nanjing Jiqun Pharmaceutical Technology Co., Ltd., prepared into a 1.65% solution using normal saline. Pilocarpine fumarate: with a molecular weight of 324.19 and a purity of 99.74%, from Nanjing Jiqun Pharmaceutical Technology Co., Ltd., prepared into a 1.65% solution using normal saline. Pilocarpine lipoate: with a molecular weight of 414.58 and a purity of 99.56%, from Nanjing Jiqun Pharmaceutical Technology Co., Ltd., prepared into a 2.11% solution using normal saline. Note: The concentrations of the compounds were different, but they all contained an equimolar amount of pilocarpine. Each rabbit in each group was subjected to single eye drop administration in the left eye, with an administration volume of 100 μL. […] The entire measurement process was completed by the same person.

[2] = test system: rabbit pupil; experiment: Rabbit pupil constriction after single eye drop (Test Example 1); format: in vivo, New Zealand rabbit; details: rabbits, Test Example 1 solutions
Procedure: Except for group 5), the eye drop solutions of groups 1) to 12) described above contained an equimolar concentration of pilocarpine. The molar concentration of pilocarpine in the eye drop solution of group 5) was half of the molar concentration of pilocarpine in the solutions of the other 11 groups.
The effects of the eye drop solutions of groups 1) to 12) prepared above on rabbit pupil constriction and irritation were tested separately.
• Species and strain: New Zealand rabbit • Grade: normal • Source: Qinglongshan Animal Breeding Farm, Jiangning District, Nanjing • Production license No.: SCXK (Su) 2016-0008 • Animal age: about 110 days old at the time of administration • Animal body weight: about 2.5-3.5 kg at the time of administration • Animal sex: all male • Feed: rabbit pellet feed • Housing conditions: air-conditioned room, with a temperature of 18-26° C. and a relative humidity of 40%-80%.
• Digital vernier caliper: specification: 0-150 mm; measurement accuracy: 0.01 mm; manufacturer: Guilin Guanglu Measuring Instrument Co., Ltd.
(§1) Each rabbit was subjected to eye drop administration in the left eye (using a pipette), with an administration volume of 100 μL.
• Number of animals: for JQ series compounds, 6 rabbits per compound; for compounds 1, 2 and 4, 5 rabbits per compound. • Administration schedule: single administration. Measurement indicators and time points: • for JQ series compounds, the pupil diameter of the left eye of the rabbits was measured at time points of −0.5 h (i.e., half an hour before administration), 5 min, 10 min, 15 min, 0.5 h, 3 h and 4 h relative to administration, with the measurement repeated 3 times for each rabbit at each time point (measurement time points were extended if necessary); • for compounds 1, 2 and 4, the pupil diameter of the left eye of the rabbits was measured at time points of 3 h and 4 h relative to administration, with the measurement repeated 3 times for each rabbit at each time point (measurement time points were extended if necessary).
Percentage change in pupil diameter (%) after administration=(pupil diameter after administration−pupil diameter before administration)/pupil diameter before administration×100%
The measurement result for each rabbit at each time point was represented by the average value of three measurements.

[3] = Stability tests on compound starting materials (HPLC related substances); format: physicochemical; details: starting material
Procedure: Samples: compound 1, compound 2 and pilocarpine hydrochloride starting material solid particles.
High-temperature test: 1 g of each of compound 1, compound 2 and pilocarpine hydrochloride starting materials were taken and placed in an open container inside a constant temperature device at 40° C.; samples were taken at time points of day 0 and day 5, and then tested according to the key stability examination items. The stability of the active pharmaceutical ingredient itself and the trend of changes in stability under the conditions of influencing factor tests were observed.
Strong light irradiation test: 1 g of each of compound 1, compound 2 and pilocarpine hydrochloride starting materials were taken and placed in an open container inside a light irradiation box, with the illumination set at 4500 lx±500 lx; samples were taken at time points of day 0 and day 5, and then tested according to the key stability examination items.
High-humidity test: 1 g of each of compound 1, compound 2 and pilocarpine hydrochloride starting materials was taken and placed in an open container inside a constant humidity closed container at 25° C. and with a relative humidity of 75%±5%; samples were taken at day 0 and day 5, and then tested according to the requirements of the key stability examination items.
According to the records in the European Pharmacopoeia (EP), the key related substances to be examined for pilocarpine include: impurity A isopilocarpine (Z-A), impurity B pilocarpic acid (Z-B), and impurity C isopilocarpic acid (Z-C). The samples taken at different time points from the above high-temperature test, strong light irradiation test and high-humidity test were separately tested using high-performance liquid chromatography to observe the trend of changes in stability under the conditions of the influencing factor tests.
The related substances were determined according to the high-performance liquid chromatography (General Chapter 0512, Chinese Pharmacopoeia, Volume IV, 2020 Edition).
Test sample solution: an appropriate amount of each test sample was precisely weighed, dissolved in water, and diluted to prepare a solution containing 1 mg of test sample per 1 mL.
Chromatographic conditions: octadecyl bonded silica gel was used as a filler [kromasil 100-5-C18 column (4.0 mm×[…]) or a chromatographic column with equivalent performance], 0.679 g/L tetrabutylammonium dihydrogen phosphate-methanol-acetonitrile (885:55:60) (adjusted to pH 7.7 with dilute aqueous ammonia) was used as mobile phase A, and acetonitrile-water (80:20) was used as mobile phase B; gradient elution was performed according to Table 6-1, with a column temperature of 30° C., a flow rate of 1.0 mL/min, a detection wavelength of 220 nm, and a sample injection volume of 20 μL.

[4] = test system: rabbit pupil; experiment: Rabbit pupil diameter change, pilocarpine p-toluate at different concentrations (Test Example 3); format: in vivo; details: 1.25%
Procedure: Under the condition of normal saline, the onset time, strength of effect, duration of effect, and irritation of 1.25% pilocarpine hydrochloride and different concentrations (0.88%, 1.75%, 3.50%) of pilocarpine p-toluate were tested.
as §1
Number of animals: 6 rabbits per compound.
Administration schedule: single administration.
• the pupil diameter of the left eye of the rabbits was measured at time points of −0.5 h (i.e., half an hour before administration), 5 min, 10 min, 15 min, 0.5 h, 3 h and 4 h relative to administration, with the measurement performed 3 times for each rabbit at each time point.

[5] = test system: rabbit eyes; experiment: Eye irritation in rabbits (Test Example 2); format: in vivo; details: 2.11% solution
[6] = drug concentration 1.65%, 0.5 h
[7] = Light-5 days (4500 lx), hydrochloride
[8] = RH 75%-5 days, 25° C., hydrochloride

Molecule: CC[C@@H]1C(=O)OC[C@@H]1Cc1cncn1C [Pilocarpine nitrate]
- miosis effect on rabbit pupils 3 h after administration [1]: substantially no miosis effect

Molecule: Pilocarpine maleate
- miosis effect on rabbit pupils 3 h after administration [1]: substantially no miosis effect
- Percentage change in pupil diameter [1, 6]: −27.53 ± 4.42%
- Percentage change in pupil diameter ([1]; drug concentration 1.65%, 3 h): −1.52 ± 6.38%

Molecule: CCC1C(=O)OCC1Cc1cncn1C.O=C(O)c1ccccc1O (stereo not shown) [Pilocarpine salicylate]
- miosis effect on rabbit pupils 3 h after administration [1]: substantially no miosis effect
- Percentage change in pupil diameter ([1]; drug concentration 1.76%, 0.5 h): −30.12 ± 4.47%
- Percentage change in pupil diameter ([1]; drug concentration 1.76%, 3 h): 2.91 ± 1.07%

Molecule: Pilocarpine fumarate
- miosis effect on rabbit pupils 3 h after administration [1]: substantially no miosis effect
- Percentage change in pupil diameter [1, 6]: −22.09 ± 6.44%
- Percentage change in pupil diameter ([1]; drug concentration 1.65%, 3 h): −1.00 ± 1.51%

Molecule: CC[C@@H]1C(=O)OC[C@@H]1Cc1cncn1C [Compound 4]
- pupil constriction (miosis) effect at 3 h after administration [2]: still showed miosis effect

Molecule: CC[C@@H]1C(=O)OC[C@@H]1Cc1cncn1C [pilocarpine hydrochloride, reference compound]
- miosis effect on rabbit pupils 3 h after administration [1]: substantially no miosis effect
- (Z-C) impurity C isopilocarpic acid ([3]; 40° C.-5 days): 0%
- Maximum single impurity ([3]; 40° C.-5 days): 0%
- (Z-A) impurity A isopilocarpine ([3]; 40° C.-5 days, hydrochloride): 0.248%
- (Z-B) impurity B pilocarpic acid ([3]; 40° C.-5 days, hydrochloride): 0%
- Total impurity ([3]; 40° C.-5 days, hydrochloride): 0.248%
- (Z-B) impurity B pilocarpic acid ([3]; Day 0): 0%
- (Z-C) impurity C isopilocarpic acid ([3]; Day 0): 0%
- Maximum single impurity ([3]; Day 0): 0%
- (Z-A) impurity A isopilocarpine ([3]; Day 0, hydrochloride): 0.197%
- Total impurity ([3]; Day 0, hydrochloride): 0.197%
- (Z-C) impurity C isopilocarpic acid ([3]; Light-5 days (4500 lx)): 0%
- Maximum single impurity ([3]; Light-5 days (4500 lx)): 0%
- (Z-A) impurity A isopilocarpine [3, 7]: 0.248%
- (Z-B) impurity B pilocarpic acid [3, 7]: 0%
- Total impurity [3, 7]: 0.248%
- (Z-C) impurity C isopilocarpic acid ([3]; RH 75%-5 days, 25° C.): 0%
- (Z-A) impurity A isopilocarpine [3, 8]: 0.259%
- (Z-B) impurity B pilocarpic acid [3, 8]: 1.641%
- Maximum single impurity [3, 8]: 0.123%
- Total impurity [3, 8]: 2.023%
- Percentage change in pupil diameter ([4]; 5 min, average of 6 rabbits): −7.81%
- Percentage change in pupil diameter ([4]; 5 min, individual rabbit, hydrochloride): −6.28% and −7.23% and −8.93% and −6.51% and −15.75% and −2.17%
- Percentage change in pupil diameter ([4]; 10 min, average of 6 rabbits): −29.35%
- Percentage change in pupil diameter ([4]; 10 min, individual rabbit, hydrochloride): −29.40% and −32.93% and −28.98% and −26.64% and −36.43% and −21.69%
- Percentage change in pupil diameter ([4]; 15 min, average of 6 rabbits): −35.33%
- Percentage change in pupil diameter ([4]; 15 min, individual rabbit, hydrochloride): −40.68% and −36.99% and −33.54% and −33.71% and −42.10% and −24.95%
- Percentage change in pupil diameter ([4]; 0.5 h, average of 6 rabbits): −34.59%
- Percentage change in pupil diameter ([4]; 0.5 h, individual rabbit, hydrochloride): −36.45% and −36.62% and −38.14% and −32.89% and −39.82% and −23.64%
- Percentage change in pupil diameter ([4]; 3 h, average of 6 rabbits): −3.13%
- Percentage change in pupil diameter ([4]; 3 h, individual rabbit, hydrochloride): 4.54% and −0.58% and 0.03% and −6.71% and −16.22% and 0.16%
- Percentage change in pupil diameter ([4]; 4 h, average of 6 rabbits): 0.25%
- Percentage change in pupil diameter ([4]; 4 h, individual rabbit, hydrochloride): −0.15% and −1.79% and 2.79% and 2.49% and −2.39% and 0.54%
- maximum percentage change in pupil diameter [2]: around 35%
- pupil constriction (miosis) effect at 3 h after administration ([2]; hydrochloride): substantially no pupil constriction effect

Molecule: CC[C@@H]1C(=O)OC[C@@H]1Cc1cncn1C.O=C(O)CCCCC1CCSS1 [Pilocarpine lipoate]
- Percentage change in pupil diameter ([1]; drug concentration 2.11%, 0.5 h): −40.69 ± 2.68%
- Percentage change in pupil diameter ([1]; drug concentration 2.11%, 3 h): −3.11 ± 2.38%
- eye irritation on administration [5]: caused significant irritation and noticeable hyperemia

Molecule: Pilocarpine malate
- miosis effect on rabbit pupils 3 h after administration [1]: substantially no miosis effect
- Percentage change in pupil diameter ([1]; drug concentration 1.74%, 0.5 h): −27.71 ± 4.98%
- Percentage change in pupil diameter ([1]; drug concentration 1.74%, 3 h): 0.07 ± 2.49%

Source: patent publication US20250154135A1, “M-CHOLINE RECEPTOR AGONIST COMPOUND, PREPARATION METHOD THEREFOR AND USE THEREOF” (NANJING GRITPHARMA CO., LTD., priority 2022, published 2025)
